Experimental data published in patent US20060189539A1, “Novel GnRH analogues with antitumour effects and pharmaceutical compositions thereof” (priority 1994, published 2006).
“Also recorded” adds a separate entry of the source.

Assays:
[1] = test system: PC3 human prostate carcinoma cell line; test: Inhibition of colony formation (dose-survival), Example 18; format: cell-based
Text: (§1) Human cell lines used in in vitro experiments. MCF-7 human mammary tumour cell line was stabilized in 1973 by Soule et al. from the pleural fluid of mammary carcinoma patients. The cells grow in monolayer and are epithelial in their character. MDA-MB-231 human mammary carcinoma cell line was isolated and stabilized in 1974 by Cailleau et al. similarly from pleural fluid. These cells also grow in monolayer. PC3 human prostate carcinoma cell line was stabilized 20 in 1979 in cell culture by Kaighn et al.; the cells are of simple epithelium type and form compact colonies in clonogenic assays. Ishikawa cell line originated from adenocarcinoma of human endometrium [Nishida et al.: Obstet. Gynecol. Jpn, 37, 25 1103-1111 (1985)], has epithelial character and contains steroid as well as GnRH receptors. Human tumour cell lines are maintained in plastic flasks (Greiner) in Dulbecco-6modified Eagle-MEM (DMEM GIBCO) nutritive medium. The medium used herein contained 10% of fetal calf serum (FCS).
(§2) In the case of cytostatics the cell-damaging effect is not cell-specific. […] One part of the arrested cells again go into the cycle, the other part may perish (apoptosis). […] The investigations were carried out on MCF-7 and MDA-MB-231 human mammary carcinoma cell lines, PC3 human prostate 15 carcinoma cell line and Ishikawa human endometrium carcinoma cell line. Threehundred cells were set into Petri dishes of 3.5 cm in diameter each. The treatment was carried out once, 24 hours following the explantation, then the colonies formed were counted after 9 to 12 days.

[2] = test system: Ishikawa human endometrium carcinoma cell line; test: as above; format: cell-based
Text: as §1, §2

[3] = test system: MDA-MB-231 human mammary carcinoma cell line; test: as above; format: cell-based; settings: 50 μM
Text: as §1, §2

[4] = test system: MCF-7 human mammary carcinoma cell line; test: as above; format: cell-based; settings: 50 μM
Text: as §1, §2

[5] = test system: MDA-MB-231 human mammary carcinoma cell line; test: Inhibition of colony formation (dose-survival), Example 48; format: cell-based
Text: (§3) MCF-7 human mammary carcinoma cell line was stabilized in 1973 by Soule et al. from the pleural fluid of a patient suffering from mammary carcinoma. MDA-MB-231 human mammary carcinoma cell line was isolated and stabilized by Cailleau et al. in 1974 similarly from pleural fluid. Both cell lines grow in monolayer. MCF-7 and MDA-MB-231 human mammary carcinoma cell lines are maintained in plastic flasks (Greiner), in Dulbecco-modified Eagle-MEM (DMEM, GIBCO) liquid nutrient medium containing 10% of fetal calf serum. MCF-7 cell line is estradiol receptor (ER)-positive containing proteins specifically binding GnRH. Thus, it represents, a useful model system for investigating the direct effect of GnRH mediated by the GnRH receptor. Being ER-negative and GnRH receptor-positive, MDA-MB-231 cell line is similarly suitable to study the direct effect of GnRH. PC3 human prostate carcinoma cell line was stabilized in cell culture by Kaighn et al. in 1979. The cells are of epithelial type and form compact colonies in clonogenic assays. The Ishikawa cell line originates from human endometrial adenocarcinoma [M. Nishida et al.: Acta Obstet. Gynecol. Jpn. 37, 1103-1111 (1985)], it is epithelial in its character and contains steroid-as well as GnRH receptors.
(§4) The examination gives accurate information about the cell-damaging effect of the substance tested as a function of varying doses. The treatment was carried out once; the colonies formed from the surviving cells were counted after 8-12 days. […] A part of the arrested cells again entered the cycle, an other part of them might be destroyed (apoptosis). […] In the case of a dose-response investigation, colonies containing less than 15 cells were not counted. 300 cells were put into each Petri dishes of 3.5 cm in diameter. The treatment was once carried out 24 hours after setting, then the colonies formed were counted after 8-12 days. The cells were treated once after 24 hours with 1-50 μM of various GnRH analogues of Examples above or with 1-50 μM of GnRH-III, respectively. The percentages of inhibition obtained on MCF-7, MDA-MB-231, PC3 and Ishikawa cells, respectively, together with the dose of the active agent used are shown in Table VIII.

[6] = test system: Ishikawa endometrium tumour cell culture; test: as above; format: cell-based, human; settings: 50 μM
Text: as §3, §4

[7] = test system: PC3 prostate tumour cell culture; test: as above; format: cell-based, human
Text: as §3, §4

[8] = test system: MCF-7 human mammary carcinoma cell line; test: as above; format: cell-based; settings: 50 μM
Text: MCF-7 human mammary carcinoma cell line was stabilized in 1973 by Soule et al. from the pleural fluid of a patient suffering from mammary carcinoma. MDA-MB-231 human mammary carcinoma cell line was isolated and stabilized by Cailleau et al. in 1974 similarly from pleural fluid. Both cell lines grow in monolayer. […] MCF-7 cell line is estradiol receptor (ER)-positive containing proteins specifically binding GnRH. Thus, it represents, a useful model system for investigating the direct effect of GnRH mediated by the GnRH receptor. Being ER-negative and GnRH receptor-positive, MDA-MB-231 cell line is similarly suitable to study the direct effect of GnRH. PC3 human prostate carcinoma cell line was stabilized in cell culture by Kaighn et al. in 1979. The cells are of epithelial type and form compact colonies in clonogenic assays. The Ishikawa cell line originates from human endometrial adenocarcinoma [M. Nishida et al.: Acta Obstet. Gynecol. Jpn. 37, 1103-1111 (1985)], it is epithelial in its character and contains steroid-as well as GnRH receptors. The examination gives accurate information about the cell-damaging effect of the substance tested as a function of varying doses. The treatment was carried out once; the colonies formed from the surviving cells were counted after 8-12 days. […] A part of the arrested cells again entered the cycle, an other part of them might be destroyed (apoptosis). […] The treatment was once carried out 24 hours after setting, then the colonies formed were counted after 8-12 days. The cells were treated once after 24 hours with 1-50 μM of various GnRH analogues of Examples above or with 1-50 μM of GnRH-III, respectively. The percentages of inhibition obtained on MCF-7, MDA-MB-231, PC3 and Ishikawa cells, respectively, together with the dose of the active agent used are shown in Table VIII.

[9] = test system: human tumor cell lines; test: Colony formation, Example 48, comparison with control D-Trp6-hGnRH; format: cell-based; settings: data of Table VIII
Experimental: as §4
In these studies the D-Trp6-hGnRH analogue (Sigma Co.) commonly used in the tumour therapy was employed as control.

[10] = test system: T-lymphocytes; test: Cellular immune response (rosette formation against BRBC antigen); format: in vivo, mice; settings: dose not stated
Text: The immunosuppressive side effect of cytostatics used in tumour therapy is commonly known. This effect can be compensated to a certain grade by various immunostimulants (endotoxin, levamisole). Polypeptides with much […] molecular weights (about 40,000 to 80,000) are also capable of protecting against immunosuppressive effect [Gal et al.: J. Biol. Resp. Modif. 5, 148-159 (1986)). The molecular weight of the novel polyanionic P-GFLG-OH macromolecule tested by us is about 10,000, that of MI-1892 is about 2000, i.e. relatively low; therefore, their immunostimulatory activity was unexpected.

[11] = test system: MDA-MB-231 human mammary carcinoma cells; test: In vitro inhibition of cell proliferation (cell count), Example 19; format: cell-based; settings: 30 μM of active substance, conjugate, treated once, cell count on 7th day
Experimental: (§5) The procedure of treatment was as follows. After trypsinization the cells, 400,000 cells of MCF-7, MDA-MB-231 human mammary carcinoma, PC3 human prostate carcinoma or Ishikawa human endometrium tumour each were passed into Petri dishes of 10 cm in diameter. Starting from the day following transfer, the cells were treated with the substances to be tested in solution prepared with the nutrient medium during the exponential growth phase. The cultures were treated with 1 to 50 μM (calculated for the total volume of the culture) of MI-1544 GnRH antagonist, MI-1892 chicken GnRH antagonist or SJ-1004 GnRH […] on the 7th day.

[12] = test system: MCF-7 human mammary carcinoma cells; test: as above; format: cell-based; settings: 30 μM of active substance, conjugate, treated once, cell count on 7th day
Experimental: as §5

[13] = test system: MDA-MB-231 xenograft; test: In vivo antitumour effect on MDA-MB-231 xenograft; set-up: species or system immunosuppressed CBA/Ca mice
Experimental: (§6) The immunosuppression of mice was carried out by using the method of Steel et al. (1978).
(§7) CBA/Ca female mice of about 6 weeks old were thymectomized and then, after one week, they were irradiated with 60Co (whole body irradiation; the lethal dose is 9.5 Gray). Within 24 hours 3 to 5×10^5 myelocytes were injected to the animals. Beneath the skin of the immunosuppressed mice 2×10^7 tumour cells or, in the case of later passages, about 2 mm^3 of tumour cells or in the case of later, additional passages about 2 mm^3 of tumour pieces were implanted. […] The treatment with steroid hormone was stopped by at least one week before beginning the investigation.
(§8) Recent investigations have begun on 28 animals bearing MCF-7 xenograft .and on 28 animals bearing MDA-MB-231 xenograft. On animals bearing MCF-7 tumour the treatment was commenced in the 5th week following xeno-transplantation; the tumour volume was 205 to 225 mm^3. On animals bearing MDA-MB-231 tumour, the treatment was started in the 4th week after xeno-transplantation with a tumour volume of 140 to 150 mm^3. […] The control groups were daily treated with physiological saline s.c. (Each treated group consisted of 7 animals.)
A more recent study was started on 28 animals bearing. MDA-MB-231 xenograft. The treatment was begun in the 4th or 5th week following xenotransplantation. The tumour volume was 0.165 to 0.194 cm3. […] (For treatment of the control group, see the preceding Examples). Each group consisted of 7 animals.

[14] = test system: Ishikawa human endometrium tumour cells; settings: 30 μM of active substance, conjugate, treated once
Text: The procedure of treatment was as follows. After trypsinization the cells, 400,000 cells of MCF-7, MDA-MB-231 human mammary carcinoma, PC3 human prostate carcinoma or Ishikawa human endometrium tumour each were passed into Petri dishes of 10 cm in diameter. […]

[15] = test system: MXT mouse mammary tumour; test: In vivo antitumour effect on MXT mouse mammary tumour; set-up: species or system CBA/Ca mice; settings: 75 μg/day/animal s.c.; day 17
Experimental: The MXT mouse mammary carcinoma contains ER and PgR proteins; furthermore, it contains also GnRH receptors; therefore, this in vivo tumor model is suitable for studying both the direct and indirect effects. The treatment of mice bearing MXT mammary tumour was commenced on the day following transplantation. […] The animals were daily treated in s.c. route starting from the day following transplantation of MXT mouse mammary tumour. […] MI-1544: 75 μg/day/animal; MI-1892: 75 μg/day/animal.

[16] = test system: B-lymphocytes; test: Humoral immune response (antibody production of B-lymphocytes); format: in vivo, mice; settings: dose not stated
[17] = test system: MCF-7 xenograft; test: In vivo antitumour effect on MCF-7 xenograft; set-up: species or system immunosuppressed CBA/Ca mice
Experimental: as §6, §7
In the case of MCF-7 tumours (xenografts) the examinations were carried out with passages being in the phase of the 37th and 38th, respectively, transplantations.
In the case of mice bearing MCF-7 xenograft, the treatment was begun in the 4th week following xeno-transplantation.
as §8

[18] = test system: PC3 human prostate carcinoma cells; test: In vitro inhibition of cell proliferation (cell count), Example 19; format: cell-based; settings: 30 μM of active substance, conjugate, treated once
Experimental: The procedure of treatment was as follows. After trypsinization the cells, 400,000 cells of MCF-7, MDA-MB-231 human mammary carcinoma, PC3 human prostate carcinoma or Ishikawa human endometrium tumour each were passed into Petri dishes of 10 cm in diameter. Starting from the day following transfer, the cells were treated with the substances to be tested in solution prepared with the nutrient medium during the exponential growth phase. […]

[19] = Castration effect: uterus weight of xenograft-bearing animals; format: in vivo, mice

NCCCC[C@H](NC(=O)[C@H](Cc1c[nH]c2ccccc12)NC(=O)[C@H](Cc1c[nH]cn1)NC(=O)[C@@H]1CCC(=O)N1)C(=O)N[C@@H](Cc1c[nH]cn1)C(=O)N[C@@H](CC(=O)O)C(=O)N[C@@H](Cc1c[nH]c2ccccc12)C(=O)N[C@@H](CCCCN)C(=O)N1CCC[C@H]1C(=O)NCC(N)=O [Compound 6, Lys^4-GnRH-III]
% Inhibition of colony formation ([1]; 50 μM): did not show any inhibition
% Inhibition of colony formation ([2]; 50 μM): 21%
% Inhibition of colony formation [3]: 35%
% Inhibition of colony formation [4]: 40%
% Inhibition of colony formation ([5]; 10 μM): 18%
% Inhibition of colony formation ([5]; 50 μM): 35%
% Inhibition of colony formation [6]: 21%
% Inhibition of colony formation ([7]; 50 μM): 0%
Effect on colony-forming ability ([7]; within the dose range used (1-50 μM)): did not influence
% Inhibition of colony formation [8]: 40%
Inhibitory effect on colony formation compared with control D-Trp6-hGnRH [9]: exceeded the inhibitory effect of control

Ac-D-Trp^1,3,D-Cpa^2,{Lys[n-poly(N-vinyl pyrrolidone-co-maleic acid)-Gly-Phe-Leu-Gly-]}5, [a-Asp(DEA)]6, D-Ala10-GnRH [P-GFLG-1892]
Effect on the cellular immune response (activity of T-lymphocytes against BRBC antigen) [10]: increased; also recorded: twofold
% Inhibition of cell division [11]: 42%
% Inhibition of cell division [12]: 45%
Inhibition of colony formation ([1]; 30 to 50 μM): 100%
% Inhibition of colony formation ([2]; 30 μM): 100%
Inhibition of colony formation ([2]; 30 to 50 μM): 100%
Tumour volume ([13]; 1 × 75 μg daily s.c., week 6): 0.33 cm3
Tumour-free animals ([13]; end of the 6th week, first series): A tumour-free animal was found
% Inhibition of cell division [14]: 91%
Tumour volume as control (%) [15]: 36%
Effect on the humoral immune response [16]: strengthened; also recorded: immunostimulatory effect
Inhibition % ([17]; 1 × 50 μg, week 2): 30%
Influence on the rate of tumour growth ([17]; first study, conjugates 150 μg in every 3rd day, P-GFLG-OH daily s.c. corresponding to 50 μg): not influenced
% Inhibition of cell division [18]: 51%
Decrease of uterus weight ([19]; animals bearing MCF-7 xenografts, treatment for four weeks): 39%
Decrease of uterus weight ([19]; animals bearing MDA-MB-231 xenografts, treatment for twelve weeks): 20%

D-Phe2,D-Trp3,{D-Lys[n-poly(N-vinylpyrrolidone-co-maleic acid)-Gly-Phe-Leu-Gly-]}6.-GNRH [P-GFLG-1004]
% Inhibition of colony formation ([1]; 30 μM): 100%
% Inhibition of colony formation ([2]; 50 μM): 46%
% Inhibition of cell division [14]: 20%
% Inhibition of cell division [18]: 35%
% Inhibition of colony formation [8]: 44%
